Like-named read-outs stand apart in the source and are kept apart here.

The term IC50 denotes the concentration needed to halve the response being measured.

The assay concerns the target T1, human GPR68 (Homo sapiens, UniProt Q15743).
T1 construct: encoding full-length human GPR68 (uniprot ID: Q15743); expressed in transfected cells; host or cells: HEK293T
The assay can be described thus: GPR68 Biochemical Assay (Promega GloSensor cAMP assay, GPR68 antagonism). It counts as cell-based. As to conditions: 15 min. How it is done:
GPR68 antagonism was determined using the Promega GloSensor™ CAMP assay (F. I. Wang et al., Methods 2021, S1046-2023 (21) 00249-8). HEK293T cells (obtained from ECACC, Cat 12022001, Lot no. 17E044) were cultured in T175 flasks (Greiner, Cat 660175) in DMEM (Gibco, Cat 11995-065) supplemented with 10% Fetal Bovine Serum (Gibco Cat 16000-044), and 100 u/mL Pen-Strep (Gibco, Cat 15140) at 37° C. and 5% CO2. GPR68 expression was achieved by transient transfection with a mammalian expression plasmid encoding full-length human GPR68 (uniprot ID: Q15743) under control of a CMV promoter. The day before transfection, cell media was aspirated and HEK293T cells were incubated with accutase (Sigma, Cat A6964) for 3-4 minutes 37° C. and 5% CO2 before being manually detached with excess DMEM and trituration. Cell density was determined by automated cell counting (Countess, Invitrogen) and adjusted to 6×10^6 cells/20 mL and transferred to 15 cm dishes (Thermo Fisher, Cat 130183) for overnight incubation at 37° C. and 5% CO2. The next day separate mammalian expression plasmids encoding hGPR68 (4 μg) and Promega GloSensor (8 μg) were diluted to 1 mL in Opti-MEM (Thermo Fisher Scientific, Cat 31985070) and incubated with 30 μL of lipofectamine 3000 (also diluted to 1 mL in Opti-MEM) for 15 minutes at room temperature and subsequently added dropwise to the plated cells. Post transfection cells were then incubated at 37° C. and 5% CO2 for at least 16 hours before transfer to assay plates the following day. Transfer was conducted by washing cells with PBS and incubating with accutase for 3-4 minutes 37° C. and 5% CO2 before being manually detached with excess DMEM and mild trituration. The suspension was then centrifuged at 192 RCF for 4 minutes in a 50 mL centrifuge tube (Greiner, Cat 227261).
Supernatant was removed by aspiration and the cell pellet was resuspended in DMEM+1% dialysed FBS (Gibco, Cat 26400-044) and 100 u/mL Pen-Strep to a cell density of 500 cells/μL. Cells were plated into poly-L-Lysine coated 384-well white assay plates (Corning, Cat 3570) at a final volume of 40 µL and a density of 20,000 cells/well before overnight incubation at 37° C. and 5% CO2. The following day media was manually ejected from the 384-well assay plate and replaced with 10 μL GloSensor substrate (Promega, Cat E1291) prepared in pH 8.0 assay buffer (1×HBSS, 10 mM HEPES, 10 mM MOPS). Cells were incubated with this solution for 60 minutes at room temperature in the dark. Test compounds or an equivalent volume of DMSO (vehicle) were added to compounds plates to create a 9-point, half-log concentration series for each compound with a maximum final assay concentration of 50 μM and a consistent final DMSO concentration of 0.5%. Assay buffer with 0.1% BSA and 0.01% ascorbic acid was prepared at three pHs: pH 8.0, pH 5.5 and pH 4.5. pH 8.0 and 4.5 were added to the compound plate as maximum and minimum effect controls whilst pH 5.5 was added to all compound wells to stimulate GPR68 to a level corresponding to […] of maximal stimulation after addition to the cells already in pH 8.0 (assay acceptance criteria range 70-90%). DMSO/Compound and buffer was added to the plated cells containing the GloSensor substrate and incubated for 15 minutes at room temperature before being read on a microplate reader (BMG PHERAstar, optic module LUM Plus with Gain 3600). Data was exported and analysed in excel and Graphpad prism (version 9). Assay QC acceptance criteria required the maximum and minimum controls to return a Z′≥0.5, the EC80 to be 80%±10% of expected and the reference ligand pIC50 to be within one-half-log unit of its historical IC50. Percent inhibition was calculated using the mean EC80 (pH 5.5) and mean minimum effect control (pH 8.0). Data were plotted as percentage inhibition, average±SEM. IC50, Emax, Emin, Actual max, actual min, R^2 and fit confidence were calculated using Graphpad Prism's sigmoidal dose-response function.
For orientation: Changes in cAMP serve as a functional read-out for many G protein-coupled receptors.

[1] abbreviates: HEK293T cells transiently expressing hGPR68, antagonism of pH 5.5 stimulated cAMP, read-out: hGPR68 IC50.

T1 sequence (Q15743 whole entry): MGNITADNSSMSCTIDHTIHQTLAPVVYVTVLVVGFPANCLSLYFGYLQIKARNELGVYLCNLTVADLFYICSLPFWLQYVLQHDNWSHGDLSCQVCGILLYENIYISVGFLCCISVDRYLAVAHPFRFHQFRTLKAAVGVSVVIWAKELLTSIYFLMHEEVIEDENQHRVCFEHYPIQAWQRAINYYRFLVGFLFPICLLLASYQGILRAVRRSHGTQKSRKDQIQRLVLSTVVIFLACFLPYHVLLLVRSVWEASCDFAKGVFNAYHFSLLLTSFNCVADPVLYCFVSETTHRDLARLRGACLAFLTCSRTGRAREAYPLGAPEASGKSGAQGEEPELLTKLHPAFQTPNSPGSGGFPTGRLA

On to `Cc1nn2c(C(=O)N[C@H]3C[C@@H](C#N)C3)ccnc2c1C(N)=O` [Compound 50, N7-(cis-3-cyanocyclobutyl)-2-methyl-pyrazolo[1,5-a]pyrimidine-3,7-dicarboxamide], for which, under setting [1], the IC50 lay within 0.5 to 5 µM. Same read-out and setting: the result for `Cc1nn2c(C(=O)NC3Cc4ccc(Cc5ccccc5)cc4C3)ccnc2c1C(N)=O` (stereo not drawn) [Compound 51, N7-(5-benzylindan-2-yl)-2-methyl-pyrazolo[1,5-a]pyrimidine-3,7-dicarboxamide] reads 5 to 50 µM; that for `Cc1nn2c(C(=O)NC3Cc4ccncc4C3)ccnc2c1C(N)=O` (stereo not drawn) [Compound 52, N7-(6,7-dihydro-5H-cyclopenta[c]pyridin-6-yl)-2-methyl-pyrazolo[1,5-a]pyrimidine-3,7-dicarboxamide], 5 to 50 µM.

Regarding `Cc1nn2c(C(=O)N[C@H]3C[C@@H](OC(F)(F)F)C3)ccnc2c1C(N)=O` [Compound 53, 2-methyl-N7-[cis-3-(trifluoromethoxy)cyclobutyl]pyrazolo[1,5-a]pyrimidine-3,7-dicarboxamide], the IC50 under setting [1] fell in the range of 0.05 to 0.5 µM. Same read-out and setting: the same measure for `COCc1nc2c(C(=O)NC3CC(F)(F)C3)ccnn2c1C(N)=O` [Compound 54, N8-(3,3-difluorocyclobutyl)-2-(methoxymethyl)imidazo[1,2-b]pyridazine-3,8-dicarboxamide]: less than 0.05 µM. In the case of `COCc1nc2c(C(=O)N[C@H]3C[C@@H](OC(F)(F)F)C3)ccnn2c1C(N)=O` [Compound 55, 2-(methoxymethyl)-N8-[cis-3-(trifluoromethoxy)cyclobutyl]imidazo[1,2-b]pyridazine-3,8-dicarboxamide], the IC50 under setting [1] fell in the range of 0.05 to 0.5 µM. `COCc1nc2c(C(=O)NC3Cc4ccccc4C3)ccnn2c1C(N)=O` [Compound 56, N8-indan-2-yl-2-(methoxymethyl)imidazo[1,2-b]pyridazine-3,8-dicarboxamide]: the 50% inhibitory concentration (IC50) under setting [1] was less than 0.05 µM. As for `COCc1nn2c(C(=O)NC3Cc4ccccc4C3)ccnc2c1C(N)=O` [Compound 57, N7-indan-2-yl-2-(methoxymethyl)pyrazolo[1,5-a]pyrimidine-3,7-dicarboxamide], under setting [1], the half-maximal inhibitory concentration (IC50) was less than 0.05 µM. Turning to `COCc1nn2c(C(=O)NC3CC(F)(F)C3)ccnc2c1C(N)=O` [Compound 58, N7-(3,3-difluorocyclobutyl)-2-(methoxymethyl)pyrazolo[1,5-a]pyrimidine-3,7-dicarboxamide], the half-inhibitory concentration (IC50) under setting [1] was less than 0.05 µM. Under “hGPR68 IC50, HEK293T cells transiently expressing hGPR68, antagonism of pH 5.5 stimulated cAMP”, `COCc1nn2c(C(=O)Nc3ccc(C(F)(F)F)cn3)ccnc2c1C(N)=O` [Compound 59, 2-(methoxymethyl)-N7-[5-(trifluoromethyl)-2-pyridyl]pyrazolo[1,5-a]pyrimidine-3,7-dicarboxamide] gave an IC50 of less than 0.05 µM. With `COCc1nn2c(C(=O)NC3Cc4cccnc4C3)ccnc2c1C(N)=O` (stereo not drawn) [Compound 60, N7-(6,7-dihydro-5H-cyclopenta[b]pyridin-6-yl)-2-(methoxymethyl)pyrazolo[1,5-a]pyrimidine-3,7-dicarboxamide], the half-maximal inhibitory concentration (IC50) under setting [1] was less than 0.05 µM. On the same count and under the same terms, the result for `COCc1nn2c(C(=O)N[C@H]3C[C@@H](OC(F)(F)F)C3)ccnc2c1C(N)=O` [Compound 61, 2-(methoxymethyl)-N7-[cis-3-(trifluoromethoxy)cyclobutyl]pyrazolo[1,5-a]pyrimidine-3,7-dicarboxamide] reads less than 0.05 µM. With `COCc1nn2c(C(=O)Nc3ccc(CN(C)C)cc3)ccnc2c1C(N)=O` [Compound 62, N7-[4-[(dimethylamino)methyl]phenyl]-2-(methoxymethyl)pyrazolo[1,5-a]pyrimidine-3,7-dicarboxamide], the half-maximal inhibitory concentration (IC50) under setting [1] lay in the range of 0.5 to 5 µM. The same measure, in the same setting: the same measure for `COCc1nn2c(C(=O)NCc3cnn(C)c3)ccnc2c1C(N)=O` [Compound 63, 2-(methoxymethyl)-N7-[(1-methylpyrazol-4-yl)methyl]pyrazolo[1,5-a]pyrimidine-3,7-dicarboxamide]: 0.5 to 5 µM; for `COCc1nn2c(C(=O)Nc3cc(C)cc(C)n3)ccnc2c1C(N)=O` [Compound 64, N7-(4,6-dimethyl-2-pyridyl)-2-(methoxymethyl)pyrazolo[1,5-a]pyrimidine-3,7-dicarboxamide]: less than 0.05 µM; for `COCc1nn2c(C(=O)Nc3cc(C(F)(F)F)ccn3)ccnc2c1C(N)=O` [Compound 65, 2-(Methoxymethyl)-N7-[4-(trifluoromethyl)-2-pyridyl]pyrazolo[1,5-a]pyrimidine-3,7-dicarboxamide]: 0.05 to 0.5 µM.

On to `COCc1nn2c(C(=O)Nc3ccc(F)c(F)c3)ccnc2c1C(N)=O` [Compound 66, N7-(3,4-difluorophenyl)-2-(methoxymethyl)pyrazolo[1,5-a]pyrimidine-3,7-dicarboxamide], for which the IC50 under setting [1] was less than 0.05 µM. Still for that read-out and setting: the same measure for `COCc1nn2c(C(=O)NCc3ccc4c(c3)CCO4)ccnc2c1C(N)=O` [Compound 67, N7-(2,3-dihydrobenzofuran-5-ylmethyl)-2-(methoxymethyl)pyrazolo[1,5-a]pyrimidine-3,7-dicarboxamide]: 0.05 to 0.5 µM. Same read-out and setting: the same measure for `COCc1nn2c(C(=O)Nc3ccc(F)cc3F)ccnc2c1C(N)=O` [Compound 68, N7-(2,4-difluorophenyl)-2-(methoxymethyl)pyrazolo[1,5-a]pyrimidine-3,7-dicarboxamide]: less than 0.05 µM; for `COCc1nn2c(C(=O)NCc3ccccc3)ccnc2c1C(N)=O` [Compound 69, N7-benzyl-2-(methoxymethyl)pyrazolo[1,5-a]pyrimidine-3,7-dicarboxamide]: 0.05 to 0.5 µM. With `COCc1nn2c(C(=O)NCc3ccc(F)cc3)ccnc2c1C(N)=O` [Compound 70, N7-[(4-fluorophenyl)methyl]-2-(methoxymethyl)pyrazolo[1,5-a]pyrimidine-3,7-dicarboxamide], under setting [1], the IC50 was less than 0.05 µM.

As to `COCc1nn2c(C(=O)NCc3cccc(F)c3)ccnc2c1C(N)=O` [Compound 71, N7-[(3-fluorophenyl)methyl]-2-(methoxymethyl)pyrazolo[1,5-a]pyrimidine-3,7-dicarboxamide], under setting [1], the concentration for half-maximal inhibition (IC50) was 0.05 to 0.5 µM. The same measure, in the same setting: the same measure for `COCc1nn2c(C(=O)NCc3ccc(C)cc3)ccnc2c1C(N)=O` [Compound 72, 2-(methoxymethyl)-N7-(p-tolylmethyl)pyrazolo[1,5-a]pyrimidine-3,7-dicarboxamide]: less than 0.05 µM; for `COCc1nn2c(C(=O)NC3CCc4ccc(OC)cc4C3)ccnc2c1C(N)=O` (stereo not drawn) [Compound 73, 2-(methoxymethyl)-N7-(7-methoxytetralin-2-yl)pyrazolo[1,5-a]pyrimidine-3,7-dicarboxamide]: less than 0.05 µM; for `COCc1nn2c(C(=O)N[C@@H]3CCCc4ccccc43)ccnc2c1C(N)=O` [Compound 74, 2-(methoxymethyl)-N7-[(1R)-tetralin-1-yl]pyrazolo[1,5-a]pyrimidine-3,7-dicarboxamide]: less than 0.05 µM. The same measure, in the same setting: the result for `COCc1nn2c(C(=O)NC3COc4ccccc43)ccnc2c1C(N)=O` (stereo not drawn) [Compound 75, N7-(2,3-dihydrobenzofuran-3-yl)-2-(methoxymethyl)pyrazolo[1,5-a]pyrimidine-3,7-dicarboxamide] reads less than 0.05 µM. Regarding `COCc1nn2c(C(=O)NC3CCCCC3)ccnc2c1C(N)=O` [Compound 76, N7-cyclohexyl-2-(methoxymethyl)pyrazolo[1,5-a]pyrimidine-3,7-dicarboxamide], under setting [1], the 50% inhibitory concentration (IC50) lay within 0.05 to 0.5 µM.

These data come from US20260308159A1, “BICYCLIC HETEROARYLAMIDES HAVING GPR68 MODULATING ACTIVITY” (RECURSION PHARMACEUTICALS, INC., priority 2023, published 2026).
